Laboratory results as given in patent US20260207573A1, “EFFECT OF RIVOCERANIB ON CYTOCHROME P450 ENZYME SUBSTRATES” (ELEVAR THERAPEUTICS, INC., priority 2022, published 2026).
“Also recorded” adds a separate entry of the source.

Experiments:
[1] = biological target: T1, CYP2C9 (Homo sapiens, UniProt P11712); test: Example 1 pharmacokinetic interaction study, rivoceranib 200 mg + Cooperstown 5+1 cocktail: warfarin probe
[2] = biological target: T1, CYP2C9; test: Example 2 phase 1 drug-drug interaction study, rivoceranib 700 mg QD + 5+1 cocktail: S- and R-warfarin probe; parameters: AUC(0-∞), Mean (CV %), 5 + 1 cocktail alone / AUC(0-∞), Geometric LSM, 5 + 1 cocktail alone / AUC(0-∞), Mean (CV %), Rivoceranib plus 5 + 1 cocktail / AUC(0-∞), Geometric LSM, Rivoceranib plus 5 + 1 cocktail / AUC(0-t), Mean (CV %), 5 + 1 cocktail alone / AUC(0-t), Geometric LSM, 5 + 1 cocktail alone / AUC(0-t), Mean (CV %), Rivoceranib plus 5 + 1 cocktail / AUC(0-t), Geometric LSM, Rivoceranib plus 5 + 1 cocktail: unit not given beside the values; conditions: for AUC(0-t), Geometric LSM, Rivoceranib plus 5 + 1 cocktail / AUC(0-t), Mean (CV %), Rivoceranib plus 5 + 1 cocktail / AUC(0-∞), Geometric LSM, Rivoceranib plus 5 + 1 cocktail / AUC(0-∞), Mean (CV %), Rivoceranib plus 5 + 1 cocktail / Cmax, Geometric LSM, Rivoceranib plus 5 + 1 cocktail / Cmax, Mean (CV %), Rivoceranib plus 5 + 1 cocktail / AUC(0-t), Geometric LSM, 5 + 1 cocktail alone / AUC(0-t), Mean (CV %), 5 + 1 cocktail alone / AUC(0-∞), Geometric LSM, 5 + 1 cocktail alone / AUC(0-∞), Mean (CV %), 5 + 1 cocktail alone / Cmax, Geometric LSM, 5 + 1 cocktail alone / Cmax, Mean (CV %), 5 + 1 cocktail alone: healthy volunteers; for AUC(0-t), Geometric LSM, Rivoceranib plus 5 + 1 cocktail / AUC(0-t), Mean (CV %), Rivoceranib plus 5 + 1 cocktail / AUC(0-∞), Geometric LSM, Rivoceranib plus 5 + 1 cocktail / AUC(0-∞), Mean (CV %), Rivoceranib plus 5 + 1 cocktail / Cmax, Geometric LSM, Rivoceranib plus 5 + 1 cocktail / Cmax, Mean (CV %), Rivoceranib plus 5 + 1 cocktail: 5+1 cocktail day 11 + rivoceranib 700 mg QD days 6-15; for AUC(0-t), Geometric LSM, 5 + 1 cocktail alone / AUC(0-t), Mean (CV %), 5 + 1 cocktail alone / AUC(0-∞), Geometric LSM, 5 + 1 cocktail alone / AUC(0-∞), Mean (CV %), 5 + 1 cocktail alone / Cmax, Geometric LSM, 5 + 1 cocktail alone / Cmax, Mean (CV %), 5 + 1 cocktail alone: single oral 5+1 cocktail dose day 1, fasted; for increase in AUC0-inf when co-administered with rivoceranib / increase in Cmax when co-administered with rivoceranib: rivoceranib 700 mg
Experimental: (§1) This example describes a pharmacokinetic interaction study in healthy human volunteers dosed with 700 mg rivoceranib and a mixture of cytochrome P450 enzyme (CYP1A2, CYP2C9, CYP2C19, CYP2D6, and CYP3A) substrates.
(§2) The primary objective of the study was to evaluate the effect of rivoceranib 700 mg once daily (QD) on the pharmacokinetics (PK) of various CYP substrates to determine drug-drug interactions of rivoceranib.
(§3) This was an open-label, 2-treatment, fixed-sequence drug-drug interaction phase 1 study designed to evaluated the impact of multiple oral doses of 700 mg rivoceranib on the single-dose PK of CYP enzyme substrates administered in a 5+1 Cooperstown probe cocktail (caffeine [CYP1A2], S- and R-warfarin [CYP2C9]+vitamin K, omeprazole [CYP2C19], dextromethorphan [CYP2D6], and midazolam [CYP3A]) in healthy volunteers (N=32). On day 1, volunteers received a single dose of the 5+1 cocktail comprising 200 mg caffeine, 10 mg S- and R-warfarin with 10 mg vitamin K, 40 mg omeprazole, 30 mg dextromethorphan, and 2 mg midazolam. Blood samples were collected pre-dose on day 1 and up to 120 hours post-dose for PK analyses of the substrates in the 5+1 cocktail. On days 6 to 15, volunteers received 700 mg rivoceranib once daily for 10 consecutive days with a single dose of the 5+1 cocktail administered on day 11. Blood samples were collected pre-dose on day 11 and up to 120 hours post cocktail dosing (day 16) for PK analyses. Each dosing was under fasted conditions. There was a washout period of 5 days between day 1 dosing and the first rivoceranib dose on day 6; the 2 cocktail dosings were spaced by 10 days.

[3] = biological target: T2, CYP1A2 (Homo sapiens, UniProt P05177); conditions: in vivo, po
T2 sequence (P05177 1-516): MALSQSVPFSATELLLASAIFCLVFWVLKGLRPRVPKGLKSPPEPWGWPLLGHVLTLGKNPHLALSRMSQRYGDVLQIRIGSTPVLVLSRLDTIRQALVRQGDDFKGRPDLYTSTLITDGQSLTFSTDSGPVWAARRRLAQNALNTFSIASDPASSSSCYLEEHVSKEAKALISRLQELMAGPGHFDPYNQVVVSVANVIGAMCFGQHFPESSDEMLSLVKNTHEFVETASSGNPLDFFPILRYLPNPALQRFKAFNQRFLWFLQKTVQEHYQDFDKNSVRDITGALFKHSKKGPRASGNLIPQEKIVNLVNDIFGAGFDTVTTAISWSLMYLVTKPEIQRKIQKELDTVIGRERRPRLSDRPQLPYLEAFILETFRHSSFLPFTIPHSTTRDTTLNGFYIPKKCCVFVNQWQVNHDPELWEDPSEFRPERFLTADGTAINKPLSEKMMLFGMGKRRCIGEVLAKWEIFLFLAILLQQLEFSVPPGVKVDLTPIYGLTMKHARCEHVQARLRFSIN

[4] = biological target: T2, CYP1A2; test: Example 2 phase 1 drug-drug interaction study, rivoceranib 700 mg QD + 5+1 cocktail: caffeine probe; conditions: for AUC(0-t) / AUC(0-inf) / Cmax: human, in vivo
Experimental: as §1, §2, §3

[5] = biological target: T3, CYP2C19 (Homo sapiens, UniProt P33261); test: Example 2 phase 1 drug-drug interaction study, rivoceranib 700 mg QD + 5+1 cocktail: omeprazole probe
T3 sequence (P33261 whole entry): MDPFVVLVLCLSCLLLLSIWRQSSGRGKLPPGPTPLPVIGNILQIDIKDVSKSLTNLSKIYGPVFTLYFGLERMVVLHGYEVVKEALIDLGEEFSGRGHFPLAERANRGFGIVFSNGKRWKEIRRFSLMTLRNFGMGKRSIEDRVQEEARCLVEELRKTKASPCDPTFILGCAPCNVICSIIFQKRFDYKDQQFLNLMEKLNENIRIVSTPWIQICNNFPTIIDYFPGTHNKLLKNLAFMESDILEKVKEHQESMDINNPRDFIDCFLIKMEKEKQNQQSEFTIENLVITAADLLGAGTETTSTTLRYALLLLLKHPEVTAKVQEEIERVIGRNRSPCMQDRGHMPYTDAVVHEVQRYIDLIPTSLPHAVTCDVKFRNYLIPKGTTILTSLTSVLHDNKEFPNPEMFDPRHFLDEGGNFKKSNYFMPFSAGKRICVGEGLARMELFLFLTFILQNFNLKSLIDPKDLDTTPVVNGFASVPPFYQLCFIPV
Experimental: as §1, §2, §3

[6] = biological target: T3, CYP2C19; conditions: in vivo, po
[7] = human, in vivo
Experimental: as §3

[8] = rivoceranib 200 mg once daily, oral substrate
[9] = oral, probe caffeine, Geometric LSM, Rivoceranib plus 5 + 1 cocktail, healthy volunteers, 5+1 cocktail day 11 + rivoceranib 700 mg QD days 6-15
[10] = oral, probe caffeine, Mean (CV %), Rivoceranib plus 5 + 1 cocktail, healthy volunteers, 5+1 cocktail day 11 + rivoceranib 700 mg QD days 6-15
[11] = po, probe caffeine, Geometric LSM, 5 + 1 cocktail alone, healthy volunteers, single oral 5+1 cocktail dose day 1, fasted
[12] = po, probe caffeine, Mean (CV %), 5 + 1 cocktail alone, healthy volunteers, single oral 5+1 cocktail dose day 1, fasted
[13] = rivoceranib 700 mg QD, 100*LSM Rivoceranib Plus 5+1 Cocktail/LSM 5+1 Cocktail Alone
[14] = po, Geometric LSM, 5 + 1 cocktail alone
[15] = po, Mean (CV %), 5 + 1 cocktail alone

T1 sequence (P11712 whole entry): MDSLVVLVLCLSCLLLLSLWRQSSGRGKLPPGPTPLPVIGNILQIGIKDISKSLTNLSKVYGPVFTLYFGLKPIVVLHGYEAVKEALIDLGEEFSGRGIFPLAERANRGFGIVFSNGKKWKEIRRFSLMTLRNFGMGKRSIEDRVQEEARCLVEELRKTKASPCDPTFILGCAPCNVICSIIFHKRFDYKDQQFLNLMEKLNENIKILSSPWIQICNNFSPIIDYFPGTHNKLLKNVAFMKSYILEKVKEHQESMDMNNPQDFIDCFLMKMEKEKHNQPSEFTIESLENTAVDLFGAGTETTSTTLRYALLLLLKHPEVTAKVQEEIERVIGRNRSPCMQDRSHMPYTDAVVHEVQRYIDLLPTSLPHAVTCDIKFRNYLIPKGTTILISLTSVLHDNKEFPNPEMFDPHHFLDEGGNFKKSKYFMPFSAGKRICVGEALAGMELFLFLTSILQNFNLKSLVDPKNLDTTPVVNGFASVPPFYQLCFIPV

CC(=O)C[C@H](c1ccccc1)c1c(O)c2ccccc2oc1=O [R-warfarin]
levels on coadministration with rivoceranib ([1]; rivoceranib 200 mg daily, plasma, FIG. 4 and Table 5): relatively unaffected | AUC(0-t), Geometric LSM, Rivoceranib plus 5 + 1 cocktail [2]: 36,090 | AUC(0-t), Mean (CV %), Rivoceranib plus 5 + 1 cocktail [2]: 36,660 | AUC(0-∞), Geometric LSM, Rivoceranib plus 5 + 1 cocktail [2]: 48,560 | AUC(0-∞), Mean (CV %), Rivoceranib plus 5 + 1 cocktail [2]: 49,220 | Cmax, Geometric LSM, Rivoceranib plus 5 + 1 cocktail [2]: 804.9 ng/mL | Cmax, Mean (CV %), Rivoceranib plus 5 + 1 cocktail [2]: 816.0 ng/mL | AUC(0-t), Geometric LSM, 5 + 1 cocktail alone [2]: 29,860 | AUC(0-t), Mean (CV %), 5 + 1 cocktail alone [2]: 29,860 | AUC(0-∞), Geometric LSM, 5 + 1 cocktail alone [2]: 36,750 | AUC(0-∞), Mean (CV %), 5 + 1 cocktail alone [2]: 36,750 | Cmax, Geometric LSM, 5 + 1 cocktail alone [2]: 701.2 ng/mL | Cmax, Mean (CV %), 5 + 1 cocktail alone [2]: 701.2 ng/mL | increase in AUC0-inf when co-administered with rivoceranib [2]: 32% | increase in Cmax when co-administered with rivoceranib [2]: 15%

CC(=O)C[C@@H](c1ccccc1)c1c(O)c2ccccc2oc1=O [S-warfarin]
increase in AUC0-∞ with coadministration with rivoceranib [1, 8]: 28% | increase in Cmax with coadministration with rivoceranib [1, 8]: 5% | AUC(0-t), Geometric LSM, Rivoceranib plus 5 + 1 cocktail [2]: 28,490 | AUC(0-t), Mean (CV %), Rivoceranib plus 5 + 1 cocktail [2]: 28,920 | AUC(0-∞), Geometric LSM, Rivoceranib plus 5 + 1 cocktail [2]: 34,670 | AUC(0-∞), Mean (CV %), Rivoceranib plus 5 + 1 cocktail [2]: 34,780 | Cmax, Geometric LSM, Rivoceranib plus 5 + 1 cocktail [2]: 832.5 ng/mL | Cmax, Mean (CV %), Rivoceranib plus 5 + 1 cocktail [2]: 840.2 ng/mL | AUC(0-t), Geometric LSM, 5 + 1 cocktail alone [2]: 18.880 | AUC(0-t), Mean (CV %), 5 + 1 cocktail alone [2]: 18,880 | AUC(0-∞), Geometric LSM, 5 + 1 cocktail alone [2]: 20,640 | AUC(0-∞), Mean (CV %), 5 + 1 cocktail alone [2]: 20,640 | Cmax, Geometric LSM, 5 + 1 cocktail alone [2]: 701.1 ng/mL | Cmax, Mean (CV %), 5 + 1 cocktail alone [2]: 701.1 ng/mL | increase in AUC0-inf when co-administered with rivoceranib [2]: 68% | increase in Cmax when co-administered with rivoceranib [2]: 19%

Cn1c(=O)c2c(ncn2C)n(C)c1=O [caffeine]
AUC(0-t), Geometric LS Mean, Cooperstown Cocktail Alone [3]: 10.6274 | AUC(0-∞), Geometric LS Mean, Cooperstown Cocktail Alone [3]: 10.6463 | Cmax, Geometric LS Mean, Cooperstown Cocktail Alone [3]: 8.4984 | AUC(0-t) [4, 9]: 43200 ng·h/mL | AUC(0-t) [4, 10]: 44500 ng·h/mL | AUC(0-inf) [4, 9]: 45400 ng·h/mL | AUC(0-inf) [4, 10]: 47600 ng·h/mL | Cmax [4, 9]: 5210 ng/mL | Cmax [4, 10]: 5330 ng/mL | AUC(0-t) ([4]; po, 200 mg, probe caffeine, Geometric LSM, 5 + 1 cocktail alone, healthy volunteers, single oral 5+1 cocktail dose day 1, fasted): 52600 ng·h/mL | AUC(0-t) ([4]; po, 200 mg, probe caffeine, Mean (CV %), 5 + 1 cocktail alone, healthy volunteers, single oral 5+1 cocktail dose day 1, fasted): 52600 ng·h/mL | AUC(0-inf) [4, 11]: 53400 ng·h/mL | AUC(0-inf) [4, 12]: 53400 ng·h/mL | Cmax [4, 11]: 5190 ng/mL | Cmax [4, 12]: 5190 ng/mL | change of Cmax with rivoceranib ([4]; rivoceranib 700 mg QD): relatively unchanged; also recorded: did not change | reduction of AUC0-inf by rivoceranib ([4]; rivoceranib 700 mg QD): 15% | AUC(0-∞), Geometrical mean Ratio, % (90% CI) [4, 13]: 84.87% | Cmax, Geometrical mean Ratio, % (90% CI) [4, 13]: 100.41%

COc1ccc2[nH]c([S+]([O-])Cc3ncc(C)c(OC)c3C)nc2c1 (stereo not drawn) [omeprazole]
increase in AUC0-inf with rivoceranib ([5]; rivoceranib 700 mg): 3.3 fold | increase in Cmax with rivoceranib ([5]; rivoceranib 700 mg): 2 fold | AUC(0-t), Geometrical mean Ratio, % (90% CI) [5, 13]: 259.87% | AUC(0-∞), Geometrical mean Ratio, % (90% CI) [5, 13]: 272.50% | Cmax, Geometrical mean Ratio, % (90% CI) [5, 13]: 198.80% | AUC(0-t), Geometric LS Mean, Cooperstown Cocktail Alone [6]: 7.3711 | AUC(0-∞), Geometric LS Mean, Cooperstown Cocktail Alone [6]: 7.5365 | Cmax, Geometric LS Mean, Cooperstown Cocktail Alone [6]: 6.3720

Cn1c(=O)[nH]c2ncn(C)c2c1=O [paraxanthine]
AUC(0-t), Geometric LS Mean, Cooperstown Cocktail Alone [3]: 10.0780 | AUC(0-∞), Geometric LS Mean, Cooperstown Cocktail Alone [3]: 10.1025 | Cmax, Geometric LS Mean, Cooperstown Cocktail Alone [3]: 7.1157 | AUC(0-t) [4, 14]: 31000 ng·h/mL | AUC(0-t) [4, 15]: 31000 ng·h/mL | AUC(0-inf) [4, 14]: 31700 ng·h/mL | AUC(0-inf) [4, 15]: 28700 ng·h/mL | Cmax [4, 14]: 1440 ng/mL | Cmax [4, 15]: 1440 ng/mL

N#CC1(c2ccc(NC(=O)c3cccnc3NCc3ccncc3)cc2)CCCC1 [rivoceranib, N-[4-(1-cyanocyclopentyl)phenyl]-2-{[(pyridin-4-yl)methyl]amino}pyridine-3-carboxamide]
volunteers who had a TEAE (number) [7]: 16 | volunteers who had a TEAE (percent) [7]: 53.30%
